Experimental data published in paper PMC7614683, “A small molecule PI3Kα activator for cardioprotection and neuroregeneration” (Nature, 2023).

What was measured:
[1] = system: PI3Kα-WT MEFs; test: CellTiter-Glo cell assay, PI3Kα-WT MEFs; type: cell-based, mouse
Description: MEFs were seeded at 5000 cells per well in 96-well plates in DMEM supplemented with 10% FBS and 1% P/S, and allowed to attach overnight. The next day, cells were serum starved for 4 h prior to compound treatment in fresh serum-free DMEM. Compounds solubilised in DMSO were diluted 1:2 in a 12-point concentration response curve in DMSO. Intermediate plates were prepared by transferring 4 μl of compounds in DMSO into 96 μl of serum-free DMEM media. This was then used to treat cell plates by transferring 12.5 μl of solution from the intermediate plate into 87.5 μl of serum-free DMEM in the cell plates. […] Cell plates were incubated for 24 h, 48 h or 72 h at 37°C, 5% CO2, followed by determination of cell survival using the CellTiter-Glo® reagent according to manufacturer’s instructions (Promega #G7571). Endpoint luminescence was measured using CLARIOstar (BMG). Compound data were analyzed using GraphPad Prism 8.

[2] = molecular target: T1, TGFBR1 (ALK5) (Homo sapiens, UniProt P36897); test: SelectScreen LanthaScreen Binding; conditions: 1000 nM
T1 sequence (P36897 34-503): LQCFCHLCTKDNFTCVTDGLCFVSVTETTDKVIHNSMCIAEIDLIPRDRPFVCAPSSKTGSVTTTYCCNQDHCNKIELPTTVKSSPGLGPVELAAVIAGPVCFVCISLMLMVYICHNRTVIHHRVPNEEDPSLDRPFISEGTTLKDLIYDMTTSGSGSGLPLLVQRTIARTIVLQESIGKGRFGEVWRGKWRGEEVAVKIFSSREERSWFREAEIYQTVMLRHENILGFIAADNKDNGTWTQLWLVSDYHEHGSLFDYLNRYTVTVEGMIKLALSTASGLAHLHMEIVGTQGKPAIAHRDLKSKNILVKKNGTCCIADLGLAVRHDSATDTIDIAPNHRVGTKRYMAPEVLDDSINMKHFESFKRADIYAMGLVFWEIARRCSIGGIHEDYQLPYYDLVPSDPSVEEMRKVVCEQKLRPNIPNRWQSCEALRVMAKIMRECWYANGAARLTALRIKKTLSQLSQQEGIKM
Description: (§1) 133 protein kinases and 7 lipid kinases were counterscreened, with 1938 used at 1 μM, using the Adapta, Lantha and Z-LYTE assays (SelectScreen Kinase Profiling Service; Thermofisher – experimental details of these assays can be found here: https://www.thermofisher.com/uk/en/home/industrial/pharma-biopharma/drug-discovery-development/target-and-lead-identification-and-validation/kinasebiology/kinase-activity-assays.html. The tree represention in KinMap[59] generated courtesy of Cell Signaling Technology, Inc. (www.cellsignal.com). mTORC1 (mTOR/RAPTOR/LST8) protein complex and ATM kinase and substrates were produced as previously described[57],[60]. Screening of 1938 was conducted using SuperSep Phos-Tag 50 μmol/l 100 x 100 x 6.6 mm 17-well (192-18001/199-18011) gels. For ATM assays, 100 nM ATM was incubated for 30 min at 30°C with 5 μM GST-p53 and 1 mM ATP, in the absence or presence of 200 μM 1938 in ATM Kinase Buffer (50 mM HEPES pH 7.5, 100 mM NaCl, 10% glycerol, 2 mM […], 5 mM MgCl2). As a positive control for ATM activation, the same reaction was carried out with 100 nM ATM/5 μM GST-p53/1 mM ATP in the presence of 100 nM Mre11-Rad50-Nbs1 (MRN) complex, a known activator of ATM[61]. For mTORC1 assays, 50 nM mTORC1 complex (mTOR/LST8/RAPTOR) was incubated for 3 h at 30°C with 15 μM 4E-BP1, 10 mM MgCl2 and 250 μM ATP, in the absence or presence of 200 μM 1938. As a ‘positive’ control, a higher concentration (150 nM) of mTORC1 complex (mTOR/LST8/RAPTOR) was incubated for 3 h at 30°C with 15 μM 4E-BP1, 10 mM MgCl2 and 250 μM ATP. Kinase reactions were quenched by addition of SDS-PAGE Loading Buffer (as per manufacturer’s instructions) and freezing at -20°C before being run on the Phos-tag gels at 150 V for 90 min. Gels were then stained using InstantBlue™ Coomassie, and quantified using BioRad Image Lab Software. Kinase assays were carried out in triplicate.

[3] = molecular target: FGFR1 V561M (Homo sapiens, UniProt P11362, V561M); test: SelectScreen LanthaScreen Binding; conditions: 1000 nM
Description: as §1

[4] = molecular target: T2, DYRK2 (Homo sapiens, UniProt Q92630); test: SelectScreen LanthaScreen Binding; conditions: 1000 nM
T2 sequence (Q92630 1-601): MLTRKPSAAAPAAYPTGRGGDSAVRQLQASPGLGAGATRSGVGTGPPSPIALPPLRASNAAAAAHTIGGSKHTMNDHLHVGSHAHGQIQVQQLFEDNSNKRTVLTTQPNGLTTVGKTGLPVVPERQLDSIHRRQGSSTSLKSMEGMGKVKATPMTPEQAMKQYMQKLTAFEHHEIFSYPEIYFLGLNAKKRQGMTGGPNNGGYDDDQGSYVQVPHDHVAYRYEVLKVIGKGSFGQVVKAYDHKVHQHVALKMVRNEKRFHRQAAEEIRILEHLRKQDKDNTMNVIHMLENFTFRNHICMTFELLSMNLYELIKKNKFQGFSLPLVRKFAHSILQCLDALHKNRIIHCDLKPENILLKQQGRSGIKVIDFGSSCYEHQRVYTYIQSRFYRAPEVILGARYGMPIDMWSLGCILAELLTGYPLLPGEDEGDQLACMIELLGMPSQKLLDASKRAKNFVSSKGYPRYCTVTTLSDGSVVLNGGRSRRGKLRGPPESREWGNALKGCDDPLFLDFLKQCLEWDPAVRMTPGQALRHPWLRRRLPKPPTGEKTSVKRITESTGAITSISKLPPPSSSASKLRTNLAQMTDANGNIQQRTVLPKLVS
Description: as §1

FGFR1 V561M, sequence (P11362 22-822 V561M): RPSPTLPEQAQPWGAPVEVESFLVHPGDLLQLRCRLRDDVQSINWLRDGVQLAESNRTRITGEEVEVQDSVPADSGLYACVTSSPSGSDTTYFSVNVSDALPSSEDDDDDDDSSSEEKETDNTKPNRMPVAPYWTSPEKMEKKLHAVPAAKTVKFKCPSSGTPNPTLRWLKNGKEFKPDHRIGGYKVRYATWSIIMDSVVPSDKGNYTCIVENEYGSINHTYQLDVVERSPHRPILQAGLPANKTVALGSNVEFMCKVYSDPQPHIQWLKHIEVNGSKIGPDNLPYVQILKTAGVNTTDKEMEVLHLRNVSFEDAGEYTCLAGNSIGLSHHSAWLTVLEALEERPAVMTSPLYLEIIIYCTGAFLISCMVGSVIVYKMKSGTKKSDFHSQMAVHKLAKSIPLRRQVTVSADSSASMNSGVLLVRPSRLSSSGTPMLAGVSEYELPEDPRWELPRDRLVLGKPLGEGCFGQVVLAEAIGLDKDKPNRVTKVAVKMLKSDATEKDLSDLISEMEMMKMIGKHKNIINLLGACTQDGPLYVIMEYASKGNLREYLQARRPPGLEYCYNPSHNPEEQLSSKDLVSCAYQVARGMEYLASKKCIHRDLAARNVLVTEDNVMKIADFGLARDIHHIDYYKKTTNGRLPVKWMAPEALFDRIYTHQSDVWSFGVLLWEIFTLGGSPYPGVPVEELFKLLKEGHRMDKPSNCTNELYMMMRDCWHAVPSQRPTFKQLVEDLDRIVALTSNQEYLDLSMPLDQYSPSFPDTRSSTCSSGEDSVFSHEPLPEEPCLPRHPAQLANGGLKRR

## CCN1CCN(c2ccc(Nc3cc(Nc4cccc5c4N(C(C)=O)CC5)ccn3)cc2)CC1 [Compound 1938]
[1]; 24h
  concentrations with a decrease in ATP levels (PI3Kα-independent effects): > 7.5 µM
[1]; 48h and 72h incubation, PI3Kα-WT and PI3Kα-KO MEFs
  concentration from which non-PI3Kα-dependent effects are observed: 2 to 4 µM
[1]; Mus musculus, 24h treatment, read-out: EC50 of increase in metabolic activity (ATP content)
  EC50: ~500 nM
[2]
  % Displacement Point 1: 19%
  % Displacement Point 2: 22%
  % Displacement mean: 21%
[3]
  % Displacement Point 1: 8%
  % Displacement Point 2: 8.43%
  % Displacement mean: 8%
[4]
  % Displacement Point 1: 23%
  % Displacement Point 2: 1%
  % Displacement mean: 12%
